Source: patent US11247976B2, “Synthetic ligands that modulate the activity of the RhlR quorum sensing receptor” (Wisconsin Alumni Research Foundation, priority 2016, dated 2022)
Marks after values point to notes of the source that are not given here.

Experiments:
[1] = biological target: T1, LasR (Pseudomonas aeruginosa, UniProt P25084); assay: Selectivity of RhlR agonism over LasR agonism (E. coli LasR reporter JLD271/pJN105L/pSC11); format: cell-based, P. aeruginosa; conditions: RhlR % activity divided by LasR % activity, > = negligible activity in LasR reporter
T1 construct: expressed in transfected cells; host or cells: E. coli JLD271 (ΔsdiA) with pJN105L and pSC11
Procedure: (§1) All media and reagents for bacterial culture were purchased from commercial sources. Bacteria were cultured in Luria-Bertani broth (LB) at 37° C. with shaking at 200 rpm unless otherwise noted. The bacterial reporter strains used for this study were (i) the heterologous E. coli strain JLD271 (ΔsdiA) harboring the RhlR expression plasmid pJN105R2 and the rhlI-lacZ transcriptional fusion reporter pSC11-rhlI*, (ii) the heterologous E. coli strain JLD271 (ΔsdiA) harboring the LasR expression plasmid pJN105L and the […] transcriptional fusion reporter pSC11, and (iii) the P. aeruginosa strain PAO-JP2 (ΔlasrhlI) harboring the rhlI-gfp transcriptional fusion reporter prhlI-LVAgfp. Reporter strains JLD271/pJN105R2/pSC11-rhlI* and JLD271/pJN105L/pSC11 were grown in LB containing 100 μg/mL ampicillin and 10 μg/mL gentamicin. Freezer stocks of bacterial strains were maintained at −80° C. in 1:1 LB:50% glycerol.
To evaluate the modulatory activities of library compounds on RhlR and LasR using E. coli reporters, the strains JLD271/pJN105R2/pSC11-rhlI* and JLD271/pJN105L/pSC11 were used, respectively, as previously described.^38, 51 The following modifications were used in the RhlR agonism reporter assay, non-native compounds (10 μM or 1 mM) were compared to 1 mM BHL as the positive control. Briefly, a subculture was prepared by diluting an overnight culture 1:10 with fresh media containing 100 μg/mL ampicillin and 10 μg/mL gentamicin, and was incubated until it had grown to OD600=0.45. In all assays, L-arabinose was added to a final concentration of 4 mg/mL to induce RhlR expression. For RhlR agonism assays, activities of test compounds were measured relative to 1 mM BHL (the concentration required to induce a maximal level of RhlR activity). For RhlR antagonism assays, test compounds were competed against a concentration of BHL approximately equal to its EC50 value (10 μM). Activity was measured relative to 10 μM BHL. Inhibition was calculated by subtracting 100% from the relative activity value. Thus, 0% inhibition mimics represents no competitive displacement of 10 μM BHL by a test compound. In all assays, modifications were made to the standard Miller assay protocol to accommodate the use of the chlorophenol red-β-D-galactopyranoside (CPRG) β-galactosidase substrate. After cell lysis, 150 μL of the aqueous layer was transferred from each well of a solvent-resistant 96-well microtiter plate to the wells of a new clear, flat-bottom 96-well microtiter plate. CPRG (4 mg/mL in phosphate-buffered saline) was added to each well in 25 μL volumes. Plates were incubated at 30° C. until the positive control wells developed a red color (approximately 30 min). The amount of processed CPRG substrate was assessed by measuring the absorbance of each well at 570 nm. Enzymatic activity was calculated using the following equation: adjusted Miller units=1000·Abs570/(OD600·t·V),
LasR assays were processed using the protocol for the substrate ortho-nitrophenyl-β-galactoside (ONPG) as previously described elsewhere.^53; and LasR antagonism assays were performed versus the EC50 for OdDHL (2 nM).
The selectivity of certain compounds for RhlR over LasR was measured using a LasR reporter strain (details above). Table 6 provides a comparison of selectivity of RhlR agonism over LasR agonism for exemplary compounds. Table 7 provides a comparison of selectivity of RhlR antagonism over LasR antagonism for exemplary compounds.

[2] = biological target: T2, RhlR (Pseudomonas aeruginosa, UniProt P54292); assay: P. aeruginosa RhlR reporter agonism assay (PAO-JP2/prhlI-LVAgfp); format: cell-based; conditions: P. aeruginosa reporter compared with E. coli reporter
T2 construct: expressed in transfected cells; host or cells: E. coli JLD271 (ΔsdiA) with pJN105R2 (arabinose-induced) and pSC11-rhlI*
Procedure: as §1
(§2) To evaluate the RhlR-modulatory activities of selected compounds in P. aeruginosa, the ΔlasIrhlI strain PAO-JP2 harboring plasmid prhlI-LVAgfp was used as previously reported.^38 Briefly, a subculture was prepared by diluting an overnight culture 1:100 in fresh LB and was grown to OD600=0.3. […] Subculture was treated with 100 nM OdDHL (to induce native expression of RhlR) by adding the appropriate amount of OdDHL stock solution in DMSO. The subculture was then dispensed ([…] aliquots) into each synthetic compound-containing well of the microtiter plate.
(§3) Plates were incubated at 37° C. for 6 h, and GFP production was monitored by using a Synergy 2 plate reader (λex=500 nm, λem=540 nm; BioTek, Winooski, Vt.) and quantified with Gen5 1.05 software (BioTek). The final OD600 for each well was measured to normalize GFP production to cell density. All synthetic compounds were tested in triplicate, and three separate trials were performed with unique cultures. Agonism dose-response analyses were performed by testing compounds over a range of concentrations with the RhlR reporter.
Library compounds J18 and J24, as well as controls BHL and S4, were evaluated for potency in the native genetic background of RhlR by using the P. aeruginosa strain PAO-JP2 (ΔlasIrhlI) harboring the RhlR reporter plasmid prhlI-LVAgfp (Table 3). Because the production of RhlR is dependent on LasR (in LB medium), all assays were performed in the presence of 100 nM OdDHL, enabling immediate transcription of RhlR via LasR activation. […] All compounds also retained similar potencies when screened in the P. aeruginosa background.

[3] = biological target: T2, RhlR; assay: P. aeruginosa RhlR reporter antagonism assay vs 10 μM BHL (PAO-JP2/prhlI-LVAgfp); format: cell-based
Procedure: FIGS. 10A and B illustrate exemplary dose-response curves for RhlR antagonism in the E. coli JLD271/pJN105R2/pSC11-rhlI* reporter strain vs. 10 μM BHL (FIG. 10A) and in the P. aeruginosa PAO-JP2/prhlI-LVAgfp reporter strain vs. 10 μM BHL (FIG. 10B).
as §2, §3

[4] = biological target: T1, LasR; assay: Selectivity of RhlR antagonism over LasR antagonism (E. coli LasR reporter, vs 2 nM OdDHL); format: cell-based, P. aeruginosa; conditions: RhlR % antagonism divided by LasR % antagonism
Procedure: as §1, with “Reporter strains JLD271/pJN105R2/pSC11-rhlI* and JLD271/pJN105L/pSC11 were grown in LB containing 100 μg/mL ampicillin and 10 μg/mL gentamicin. Freezer stocks of bacterial strains were maintained at −80° C. in 1:1 LB:50% glycerol.” left out
To evaluate the modulatory activities of library compounds on RhlR and LasR using E. coli reporters, the strains JLD271/pJN105R2/pSC11-rhlI* and JLD271/pJN105L/pSC11 were used, respectively, as previously described.^38, 51 The following modifications were used in the RhlR agonism reporter assay, non-native compounds (10 μM or 1 mM) were compared to 1 mM BHL as the positive control. […] For RhlR agonism assays, activities of test compounds were measured relative to 1 mM BHL (the concentration required to induce a maximal level of RhlR activity). […] Activity was measured relative to 10 μM BHL. Inhibition was calculated by subtracting 100% from the relative activity value. […]

T1 sequence (P25084 whole entry): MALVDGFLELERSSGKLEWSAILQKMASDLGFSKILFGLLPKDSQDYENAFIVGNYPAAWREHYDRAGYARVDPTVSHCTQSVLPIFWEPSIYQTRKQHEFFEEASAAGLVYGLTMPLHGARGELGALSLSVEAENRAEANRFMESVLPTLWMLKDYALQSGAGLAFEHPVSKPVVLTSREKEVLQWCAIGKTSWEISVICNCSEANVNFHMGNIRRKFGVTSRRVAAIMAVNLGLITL
T2 sequence (P54292 whole entry): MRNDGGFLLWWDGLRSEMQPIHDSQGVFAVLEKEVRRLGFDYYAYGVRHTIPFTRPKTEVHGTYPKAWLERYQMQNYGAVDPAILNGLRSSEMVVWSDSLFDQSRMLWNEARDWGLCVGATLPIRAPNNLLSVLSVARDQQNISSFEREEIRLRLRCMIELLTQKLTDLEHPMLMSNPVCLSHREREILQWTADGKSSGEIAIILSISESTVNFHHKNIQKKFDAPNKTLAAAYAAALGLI

Row | SMILES | Fold selectivity of RhlR agonists over LasR agonism ([1]; tested concentration 1 mM) | Fold selectivity of RhlR agonists over LasR agonism ([1]; tested concentration 10 μm) | RhlR agonist potency in words [2] | concentration blocking native ligand activity by 50%, relative to EC50 of native ligand ([3]; P. aeruginosa) | RhlR antagonist activity in words ([3]; P. aeruginosa reporter vs 10 μM BHL) | IC50 ([3]; P. aeruginosa reporter vs 10 μM BHL, read-out: IC50 for RhlR inhibition) | Maximum Inhibition (%) ([3]; P. aeruginosa reporter, relative to activation of 10 μM BHL alone) | Fold selectivity of RhlR antagonist over LasR antagonism ([4]; tested concentration 1 mM) | Fold selectivity of RhlR antagonist over LasR antagonism ([4]; tested concentration 10 μm)
1 | CC(C)CC(=O)N[C@H]1CCSC1=O [RN37] | 13 fold | >85^b fold | not able to retain potency |  |  |  |  |  | 
2 | O=C(COc1ccc(I)cc1)N[C@H]1CCSC1=O [RN22] |  |  |  | less than 4 fold | maintained its strong inhibitory profile | 31 µM | 85% | 74 fold | 1.5 fold
3 | CC(C)CC(=O)N[C@H]1CCCC1=O [RN36] | >84^b fold | 105^ fold | not able to retain potency |  |  |  |  |  | 
4 | O=C(N[C@H]1CCCC1=O)C1CCC1 [RN12] | 6.8 fold | >56^b fold | maintained activity between the two different reporters |  |  |  |  |  | 
